In publication PMC8550792, “Evolution of kinase polypharmacology across HSP90 drug discovery” (Cell Chemical Biology, 2021):

What was measured:
Assay in all cases: biochemical
Assay type in all cases: biochemical
382 unique human kinases [1] = target: T1, 382 unique human kinases (Homo sapiens, UniProt O00311); settings: kinase CDC7/DBF4, compound 10 uM; for remaining activity at 10 µM: read-out: % Enzyme Activity (relative to DMSO controls)
T1 construct: purchased Reaction Biology (HotSpot contract assay)
T1 sequence (O00311 whole entry): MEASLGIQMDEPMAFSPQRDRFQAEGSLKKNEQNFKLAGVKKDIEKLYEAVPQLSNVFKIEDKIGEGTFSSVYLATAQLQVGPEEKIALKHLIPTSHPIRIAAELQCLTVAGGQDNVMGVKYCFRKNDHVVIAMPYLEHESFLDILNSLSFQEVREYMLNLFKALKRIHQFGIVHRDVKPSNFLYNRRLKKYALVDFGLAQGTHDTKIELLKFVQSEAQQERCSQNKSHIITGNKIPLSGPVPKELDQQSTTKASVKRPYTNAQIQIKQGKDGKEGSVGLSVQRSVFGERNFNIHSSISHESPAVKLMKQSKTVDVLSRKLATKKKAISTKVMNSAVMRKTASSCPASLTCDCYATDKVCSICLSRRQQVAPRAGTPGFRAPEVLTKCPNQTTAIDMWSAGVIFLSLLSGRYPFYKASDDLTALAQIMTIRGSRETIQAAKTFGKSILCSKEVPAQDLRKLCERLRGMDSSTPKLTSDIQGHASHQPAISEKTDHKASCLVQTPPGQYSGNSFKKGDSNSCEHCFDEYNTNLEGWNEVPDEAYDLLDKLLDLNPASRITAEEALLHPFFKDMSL

382 unique human kinases [2] = target: T2, 382 unique human kinases (Homo sapiens, UniProt P00533, T790M); settings: kinase EGFR (T790M), compound 10 uM; for remaining activity at 10 µM: read-out: % Enzyme Activity (relative to DMSO controls)
T2 construct: purchased Reaction Biology (HotSpot contract assay)

382 unique human kinases [3] = target: T3, 382 unique human kinases (Homo sapiens, UniProt Q14164); settings: kinase IKKe/IKBKE, compound 10 uM; for remaining activity at 10 µM: read-out: % Enzyme Activity (relative to DMSO controls)
T3 construct: purchased Reaction Biology (HotSpot contract assay)
T3 sequence (Q14164 1-716): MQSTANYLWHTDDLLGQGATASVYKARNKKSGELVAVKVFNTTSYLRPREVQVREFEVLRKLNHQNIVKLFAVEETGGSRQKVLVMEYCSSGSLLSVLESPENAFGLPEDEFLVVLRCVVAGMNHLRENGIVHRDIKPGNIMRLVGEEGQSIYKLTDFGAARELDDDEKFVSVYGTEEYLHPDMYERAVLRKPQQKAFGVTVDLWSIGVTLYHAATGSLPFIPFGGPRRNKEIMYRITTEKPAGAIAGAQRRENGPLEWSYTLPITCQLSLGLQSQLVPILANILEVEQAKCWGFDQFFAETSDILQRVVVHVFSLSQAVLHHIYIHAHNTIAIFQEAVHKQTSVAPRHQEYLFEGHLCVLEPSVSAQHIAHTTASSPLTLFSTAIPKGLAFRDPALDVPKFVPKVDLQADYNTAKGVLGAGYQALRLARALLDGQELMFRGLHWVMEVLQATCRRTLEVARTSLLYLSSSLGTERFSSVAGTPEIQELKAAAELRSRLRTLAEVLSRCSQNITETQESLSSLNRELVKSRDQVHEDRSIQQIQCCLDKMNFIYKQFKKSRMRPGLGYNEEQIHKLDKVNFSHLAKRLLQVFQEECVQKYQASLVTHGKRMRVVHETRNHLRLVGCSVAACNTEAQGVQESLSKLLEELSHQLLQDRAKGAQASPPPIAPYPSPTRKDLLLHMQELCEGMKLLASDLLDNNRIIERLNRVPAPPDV

382 unique human kinases [4] = target: T4, 382 unique human kinases (Homo sapiens, UniProt P21802, E565G); settings: kinase FGFR2 (E565G), compound 10 uM; for remaining activity at 10 µM: read-out: % Enzyme Activity (relative to DMSO controls)
T4 construct: purchased Reaction Biology (HotSpot contract assay)
T4 sequence (P21802 22-821 E565G): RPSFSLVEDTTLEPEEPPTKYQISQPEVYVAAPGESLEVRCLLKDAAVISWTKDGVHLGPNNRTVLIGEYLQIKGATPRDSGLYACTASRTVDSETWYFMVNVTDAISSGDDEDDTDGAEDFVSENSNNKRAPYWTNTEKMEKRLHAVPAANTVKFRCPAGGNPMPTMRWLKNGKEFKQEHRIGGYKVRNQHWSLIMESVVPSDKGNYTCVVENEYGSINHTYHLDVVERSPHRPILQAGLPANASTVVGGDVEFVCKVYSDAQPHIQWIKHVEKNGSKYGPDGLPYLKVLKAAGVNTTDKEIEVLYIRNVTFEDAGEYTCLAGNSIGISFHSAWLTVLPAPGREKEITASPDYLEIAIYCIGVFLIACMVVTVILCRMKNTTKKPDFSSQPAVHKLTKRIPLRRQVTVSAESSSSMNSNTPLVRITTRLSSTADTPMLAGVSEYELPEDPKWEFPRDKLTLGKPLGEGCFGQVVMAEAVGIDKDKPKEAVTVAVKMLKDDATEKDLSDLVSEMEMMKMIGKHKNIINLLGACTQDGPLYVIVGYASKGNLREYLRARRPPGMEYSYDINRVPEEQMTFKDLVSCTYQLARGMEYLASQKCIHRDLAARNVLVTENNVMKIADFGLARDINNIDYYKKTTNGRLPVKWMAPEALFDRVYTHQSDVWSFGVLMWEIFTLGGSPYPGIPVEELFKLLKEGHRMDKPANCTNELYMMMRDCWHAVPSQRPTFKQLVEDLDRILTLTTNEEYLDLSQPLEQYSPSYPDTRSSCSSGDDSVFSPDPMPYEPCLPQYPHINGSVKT

382 unique human kinases [5] = target: T5, 382 unique human kinases (Homo sapiens, UniProt Q9BYP7); settings: WNK3, 10 uM; for remaining activity at 10 µM: read-out: % Enzyme Activity (relative to DMSO controls)
T5 construct: purchased Reaction Biology (HotSpot contract assay)
T5 sequence (Q9BYP7 whole entry): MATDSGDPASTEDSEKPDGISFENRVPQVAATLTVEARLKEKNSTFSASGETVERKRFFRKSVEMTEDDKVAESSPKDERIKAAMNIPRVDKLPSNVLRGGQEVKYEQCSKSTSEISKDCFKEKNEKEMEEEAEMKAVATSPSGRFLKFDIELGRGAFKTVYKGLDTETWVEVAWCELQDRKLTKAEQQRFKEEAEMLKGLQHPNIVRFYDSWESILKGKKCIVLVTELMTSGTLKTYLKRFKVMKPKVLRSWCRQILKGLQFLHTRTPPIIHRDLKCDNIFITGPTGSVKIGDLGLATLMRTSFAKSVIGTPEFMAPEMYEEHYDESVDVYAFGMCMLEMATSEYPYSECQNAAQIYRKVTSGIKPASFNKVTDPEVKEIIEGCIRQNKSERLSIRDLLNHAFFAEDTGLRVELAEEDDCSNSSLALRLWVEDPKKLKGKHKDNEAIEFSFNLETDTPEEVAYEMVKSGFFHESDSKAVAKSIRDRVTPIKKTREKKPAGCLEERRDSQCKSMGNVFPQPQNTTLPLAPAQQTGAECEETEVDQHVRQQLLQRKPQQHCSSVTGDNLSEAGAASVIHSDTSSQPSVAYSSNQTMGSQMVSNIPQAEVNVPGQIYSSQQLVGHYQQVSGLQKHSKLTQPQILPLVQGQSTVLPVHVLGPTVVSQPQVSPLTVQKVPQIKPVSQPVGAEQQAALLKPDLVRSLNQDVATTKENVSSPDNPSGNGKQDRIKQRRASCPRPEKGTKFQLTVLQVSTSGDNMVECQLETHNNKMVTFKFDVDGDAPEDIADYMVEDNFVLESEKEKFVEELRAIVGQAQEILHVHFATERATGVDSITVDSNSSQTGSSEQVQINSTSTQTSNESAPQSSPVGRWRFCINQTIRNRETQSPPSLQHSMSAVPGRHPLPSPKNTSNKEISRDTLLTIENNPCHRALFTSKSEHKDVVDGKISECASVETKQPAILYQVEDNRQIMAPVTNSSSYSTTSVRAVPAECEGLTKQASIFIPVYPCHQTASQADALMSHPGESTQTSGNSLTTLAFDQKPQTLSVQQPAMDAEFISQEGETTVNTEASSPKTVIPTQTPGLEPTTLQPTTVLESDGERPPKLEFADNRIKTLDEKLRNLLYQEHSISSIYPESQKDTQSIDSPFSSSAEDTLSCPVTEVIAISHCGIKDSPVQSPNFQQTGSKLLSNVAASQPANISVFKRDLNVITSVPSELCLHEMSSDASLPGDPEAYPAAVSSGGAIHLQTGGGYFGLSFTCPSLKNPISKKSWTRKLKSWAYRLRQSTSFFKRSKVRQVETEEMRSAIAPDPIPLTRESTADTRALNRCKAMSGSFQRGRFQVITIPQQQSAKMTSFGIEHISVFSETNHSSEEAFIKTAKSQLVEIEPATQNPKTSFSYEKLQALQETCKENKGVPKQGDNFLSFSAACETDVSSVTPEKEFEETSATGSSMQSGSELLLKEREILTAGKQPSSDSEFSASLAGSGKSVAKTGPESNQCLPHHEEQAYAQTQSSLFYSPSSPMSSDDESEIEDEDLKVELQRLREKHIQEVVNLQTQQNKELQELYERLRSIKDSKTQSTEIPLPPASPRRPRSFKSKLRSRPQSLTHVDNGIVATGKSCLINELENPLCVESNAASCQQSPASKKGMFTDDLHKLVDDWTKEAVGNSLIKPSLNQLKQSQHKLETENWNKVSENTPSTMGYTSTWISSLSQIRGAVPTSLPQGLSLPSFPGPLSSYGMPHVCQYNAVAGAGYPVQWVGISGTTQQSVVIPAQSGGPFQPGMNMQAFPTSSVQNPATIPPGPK

382 unique human kinases [6] = target: T6, 382 unique human kinases (Homo sapiens, UniProt Q13976); settings: PKG1a, 10 uM; for remaining activity at 10 µM: read-out: % Enzyme Activity (relative to DMSO controls)
T6 construct: purchased Reaction Biology (HotSpot contract assay)
T6 sequence (Q13976 1-671): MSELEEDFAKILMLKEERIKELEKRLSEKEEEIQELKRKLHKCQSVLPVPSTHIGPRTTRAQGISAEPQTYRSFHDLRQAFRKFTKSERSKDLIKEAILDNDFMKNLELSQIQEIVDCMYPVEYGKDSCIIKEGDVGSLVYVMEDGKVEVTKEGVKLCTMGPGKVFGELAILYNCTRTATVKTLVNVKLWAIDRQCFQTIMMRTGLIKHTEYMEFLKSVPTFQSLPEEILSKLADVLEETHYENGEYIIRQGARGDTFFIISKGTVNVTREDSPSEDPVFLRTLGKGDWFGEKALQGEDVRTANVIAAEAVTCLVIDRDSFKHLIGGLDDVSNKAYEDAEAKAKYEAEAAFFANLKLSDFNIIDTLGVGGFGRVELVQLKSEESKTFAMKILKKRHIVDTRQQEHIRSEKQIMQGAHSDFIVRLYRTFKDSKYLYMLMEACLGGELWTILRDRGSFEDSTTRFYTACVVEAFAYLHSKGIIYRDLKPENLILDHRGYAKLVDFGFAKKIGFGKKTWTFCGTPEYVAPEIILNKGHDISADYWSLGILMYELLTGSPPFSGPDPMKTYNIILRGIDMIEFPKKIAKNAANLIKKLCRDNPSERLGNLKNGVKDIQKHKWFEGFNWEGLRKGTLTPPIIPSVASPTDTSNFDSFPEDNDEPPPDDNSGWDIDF

382 unique human kinases [7] = target: T7, 382 unique human kinases (Homo sapiens, UniProt Q07912); settings: ACK1, [ATP] 100 µM, compound 10 uM; for remaining activity at 10 µM: read-out: % Enzyme Activity (relative to DMSO controls)
T7 construct: purchased Reaction Biology (HotSpot contract assay)
T7 sequence (Q07912 whole entry): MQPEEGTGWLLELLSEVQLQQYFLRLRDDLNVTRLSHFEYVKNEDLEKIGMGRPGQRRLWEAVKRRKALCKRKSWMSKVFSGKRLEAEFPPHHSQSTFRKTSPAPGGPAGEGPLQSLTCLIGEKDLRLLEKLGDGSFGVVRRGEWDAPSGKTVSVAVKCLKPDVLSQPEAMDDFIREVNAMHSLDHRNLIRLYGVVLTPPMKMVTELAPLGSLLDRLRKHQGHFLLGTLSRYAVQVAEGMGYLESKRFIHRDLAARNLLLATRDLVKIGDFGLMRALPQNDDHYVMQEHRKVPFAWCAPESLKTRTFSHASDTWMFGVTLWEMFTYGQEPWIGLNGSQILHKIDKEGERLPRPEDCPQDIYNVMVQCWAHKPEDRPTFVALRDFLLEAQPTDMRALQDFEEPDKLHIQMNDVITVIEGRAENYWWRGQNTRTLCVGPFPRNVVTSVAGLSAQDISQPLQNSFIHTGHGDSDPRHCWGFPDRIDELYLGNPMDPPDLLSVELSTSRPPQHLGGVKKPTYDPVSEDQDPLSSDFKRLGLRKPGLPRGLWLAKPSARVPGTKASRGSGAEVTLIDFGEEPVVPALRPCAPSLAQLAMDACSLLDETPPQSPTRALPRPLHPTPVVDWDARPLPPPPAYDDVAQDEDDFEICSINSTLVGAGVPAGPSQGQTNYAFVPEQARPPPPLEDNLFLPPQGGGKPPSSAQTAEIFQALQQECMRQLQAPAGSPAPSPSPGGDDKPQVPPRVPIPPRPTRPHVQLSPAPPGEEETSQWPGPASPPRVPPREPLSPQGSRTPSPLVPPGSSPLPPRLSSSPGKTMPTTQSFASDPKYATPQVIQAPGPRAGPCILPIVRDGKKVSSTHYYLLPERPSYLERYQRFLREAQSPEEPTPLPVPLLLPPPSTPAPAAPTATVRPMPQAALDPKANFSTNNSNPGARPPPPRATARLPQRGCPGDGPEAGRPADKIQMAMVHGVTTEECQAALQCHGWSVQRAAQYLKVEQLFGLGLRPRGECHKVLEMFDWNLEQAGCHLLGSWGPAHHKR

382 unique human kinases [8] = target: T8, 382 unique human kinases (Homo sapiens, UniProt Q9Y243); settings: AKT3, 10 uM; for remaining activity at 10 µM: read-out: % Enzyme Activity (relative to DMSO controls)
T8 construct: purchased Reaction Biology (HotSpot contract assay)
T8 sequence (Q9Y243 whole entry): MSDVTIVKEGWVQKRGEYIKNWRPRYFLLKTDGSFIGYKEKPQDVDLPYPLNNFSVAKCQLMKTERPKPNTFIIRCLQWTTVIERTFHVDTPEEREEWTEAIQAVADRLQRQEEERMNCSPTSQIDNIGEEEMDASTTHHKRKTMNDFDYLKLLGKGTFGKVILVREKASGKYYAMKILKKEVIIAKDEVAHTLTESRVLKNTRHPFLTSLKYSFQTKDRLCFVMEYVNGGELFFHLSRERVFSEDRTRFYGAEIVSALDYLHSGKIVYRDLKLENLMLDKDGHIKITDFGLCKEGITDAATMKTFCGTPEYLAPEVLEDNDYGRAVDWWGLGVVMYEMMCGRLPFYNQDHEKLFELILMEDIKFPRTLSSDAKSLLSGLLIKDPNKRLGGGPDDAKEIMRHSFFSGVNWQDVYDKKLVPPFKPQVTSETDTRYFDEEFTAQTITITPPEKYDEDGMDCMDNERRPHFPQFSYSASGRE

382 unique human kinases [9] = target: T9, 382 unique human kinases (Homo sapiens, UniProt Q16832, N456S); settings: DDR2 (N456S), [ATP] 2.5 µM, compound 10 uM; for remaining activity at 10 µM: read-out: % Enzyme Activity (relative to DMSO controls)
T9 construct: purchased Reaction Biology (HotSpot contract assay)
T9 sequence (Q16832 22-855 N456S): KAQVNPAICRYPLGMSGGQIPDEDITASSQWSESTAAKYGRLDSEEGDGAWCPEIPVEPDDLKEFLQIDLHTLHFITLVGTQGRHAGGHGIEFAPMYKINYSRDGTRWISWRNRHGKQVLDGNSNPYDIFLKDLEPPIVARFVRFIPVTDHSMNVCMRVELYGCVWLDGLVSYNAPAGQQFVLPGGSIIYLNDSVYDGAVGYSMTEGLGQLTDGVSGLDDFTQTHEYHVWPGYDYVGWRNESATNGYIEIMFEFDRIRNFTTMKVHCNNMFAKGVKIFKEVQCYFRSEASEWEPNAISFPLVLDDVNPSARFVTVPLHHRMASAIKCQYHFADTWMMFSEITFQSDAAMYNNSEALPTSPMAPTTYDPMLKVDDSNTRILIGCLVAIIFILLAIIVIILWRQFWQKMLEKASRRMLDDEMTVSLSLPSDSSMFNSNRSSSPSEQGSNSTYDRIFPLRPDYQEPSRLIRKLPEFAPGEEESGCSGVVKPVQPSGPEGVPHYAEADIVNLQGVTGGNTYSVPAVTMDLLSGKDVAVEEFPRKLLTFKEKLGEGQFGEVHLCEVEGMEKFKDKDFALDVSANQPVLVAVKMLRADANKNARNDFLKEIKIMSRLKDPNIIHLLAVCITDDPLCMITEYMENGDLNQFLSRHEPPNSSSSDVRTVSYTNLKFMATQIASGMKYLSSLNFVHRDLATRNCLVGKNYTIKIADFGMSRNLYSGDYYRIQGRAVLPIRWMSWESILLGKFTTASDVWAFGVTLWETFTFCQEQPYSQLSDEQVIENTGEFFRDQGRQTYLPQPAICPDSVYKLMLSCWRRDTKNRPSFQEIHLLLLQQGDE

382 unique human kinases [10] = target: T10, 382 unique human kinases (Homo sapiens, UniProt P08581, Y1230C); settings: c-MET (Y1230C), 10 uM; for remaining activity at 10 µM: read-out: % Enzyme Activity (relative to DMSO controls)
T10 construct: purchased Reaction Biology (HotSpot contract assay)

Structure (SMILES) | remaining activity at 10 µM (382 unique human kinases [1]) [%] | remaining activity at 10 µM (382 unique human kinases [2]) [%] | remaining activity at 10 µM (382 unique human kinases [3]) [%] | remaining activity at 10 µM (382 unique human kinases [4]) [%] | % Enzyme Activity (relative to DMSO controls) (382 unique human kinases [5]) [%] | remaining activity at 10 µM (382 unique human kinases [5]) [%] | % Enzyme Activity (relative to DMSO controls) (382 unique human kinases [6]) [%] | remaining activity at 10 µM (382 unique human kinases [6]) [%] | % Enzyme Activity (relative to DMSO controls) (382 unique human kinases [7]) [%] | remaining activity at 10 µM (382 unique human kinases [7]) [%] | % Enzyme Activity (relative to DMSO controls) (382 unique human kinases [8]) [%] | remaining activity at 10 µM (382 unique human kinases [8]) [%] | % Enzyme Activity (relative to DMSO controls) (382 unique human kinases [9]) [%] | remaining activity at 10 µM (382 unique human kinases [9]) [%] | % Enzyme Activity (relative to DMSO controls) (382 unique human kinases [10]) [%] | remaining activity at 10 µM (382 unique human kinases [10]) [%] | % Enzyme Activity (relative to DMSO controls) (382 unique human kinases [1]) [%] | % Enzyme Activity (relative to DMSO controls) (382 unique human kinases [2]) [%] | % Enzyme Activity (relative to DMSO controls) (382 unique human kinases [3]) [%] | % Enzyme Activity (relative to DMSO controls) (382 unique human kinases [4]) [%]
CC(C)c1cc(-c2n[nH]c(=O)n2-c2ccc3c(ccn3C)c2)c(O)cc1O [Ganetespib (STA9090)] | 85.9 | 85.7 | 95.7 | 79.4 | – | – | – | – | – | – | – | – | – | – | – | – | – | – | – | –
CCNC(=O)c1noc(-c2cc(C(C)C)c(O)cc2O)c1-c1ccc(CN2CCOCC2)cc1 [Luminespib] | – | – | – | – | 110.27 | 112 | 92.81 | 95.7 | 88.83 | 89.5 | 99.02 | 100 | 85.24 | 90.4 | 102.31 | 103 | – | – | – | –
CCNC(=O)c1noc(-c2cc(C(C)C)c(O)cc2O)c1-c1ccc(CN2CCOCC2)cc1 [Luminespib (AUY-922)] | 107 | 95.4 | 109 | 98.6 | – | – | – | – | – | – | – | – | – | – | – | – | 105.45 | 95.04 | 104.37 | 97.20
CC(C)c1cc(-c2n[nH]c(=O)n2-c2ccc3c(ccn3C)c2)c(O)cc1O [Ganetespib] | – | – | – | – | – | 98.1 | – | 90.9 | – | 47 | – | 92.1 | – | 2.65 | – | 97 | – | – | – | –
